Source: PubChem BioAssay (NCI)
In brackets after ≈: the same amount, converted by molar mass.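 Five concentrations, 48 hours, 96-well plates. GI50 is the concentration that inhibits growth by half. The concentration for full growth arrest is given as TGI.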 Non-standard residues stand in square brackets, D forms with d. Residues, ends and D or L forms follow the SMILES beside them. *: point of attachment. hSer = N[CH](CCO)C(=O)O; Boc = CC(C)(C)OC(=O)*

How the values were obtained:
Test in all cases: growth of human tumour cells (NCI), 48 h
HCC-2998 colon = tested on: HCC-2998 colon
HL-60(TB) leukemia = tested on: HL-60(TB) leukemia
K-562 leukemia = tested on: K-562 leukemia
SR leukemia = tested on: SR leukemia
MOLT-4 leukemia = tested on: MOLT-4 leukemia
OVCAR-4 ovarian = tested on: OVCAR-4 ovarian
M14 melanoma = tested on: M14 melanoma
OVCAR-3 ovarian = tested on: OVCAR-3 ovarian
MCF7 breast = tested on: MCF7 breast
OVCAR-8 ovarian = tested on: OVCAR-8 ovarian
HCT-15 colon = tested on: HCT-15 colon
LOX IMVI melanoma = tested on: LOX IMVI melanoma
HCT-116 colon = tested on: HCT-116 colon
NCI-H460 lung = tested on: NCI-H460 lung
NCI-H522 lung = tested on: NCI-H522 lung
KM12 colon = tested on: KM12 colon
CCRF-CEM leukemia = tested on: CCRF-CEM leukemia
COLO 205 colon = tested on: COLO 205 colon
T-47D breast = tested on: T-47D breast
SK-OV-3 ovarian = tested on: SK-OV-3 ovarian
MDA-MB-435 = tested on: MDA-MB-435
HOP-62 NSCLC = tested on: HOP-62 NSCLC
UACC-62 melanoma = tested on: UACC-62 melanoma
UACC-257 melanoma = tested on: UACC-257 melanoma
UO-31 renal = tested on: UO-31 renal
MDA-MB-231 breast = tested on: MDA-MB-231 breast
786-0 renal = tested on: 786-0 renal
BT-549 breast = tested on: BT-549 breast
HT29 colon = tested on: HT29 colon
EKVX NSCLC = tested on: EKVX NSCLC
SW-620 colon = tested on: SW-620 colon
NCI-H23 lung = tested on: NCI-H23 lung
TK-10 renal = tested on: TK-10 renal
SN12C renal = tested on: SN12C renal
DU-145 prostate = tested on: DU-145 prostate
CAKI-1 renal = tested on: CAKI-1 renal
SNB-19 CNS = tested on: SNB-19 CNS
RPMI-8226 leukemia = tested on: RPMI-8226 leukemia
SF-539 CNS = tested on: SF-539 CNS
A498 renal = tested on: A498 renal
SK-MEL-28 melanoma = tested on: SK-MEL-28 melanoma
PC-3 prostate = tested on: PC-3 prostate
SNB-75 CNS = tested on: SNB-75 CNS
ACHN renal = tested on: ACHN renal
OVCAR-5 ovarian = tested on: OVCAR-5 ovarian
SK-MEL-2 melanoma = tested on: SK-MEL-2 melanoma
NCI-H226 lung = tested on: NCI-H226 lung
SF-268 CNS = tested on: SF-268 CNS
IGROV1 ovarian = tested on: IGROV1 ovarian
A549 NSCLC = tested on: A549 NSCLC
SF-295 CNS = tested on: SF-295 CNS
SK-MEL-5 melanoma = tested on: SK-MEL-5 melanoma
RXF 393 renal = tested on: RXF 393 renal
U251 CNS = tested on: U251 CNS
NCI/ADR-RES ovarian = tested on: NCI/ADR-RES ovarian
HOP-92 NSCLC = tested on: HOP-92 NSCLC
MALME-3M melanoma = tested on: MALME-3M melanoma

COCCC(NC(=O)C(CC(C)C)NC(=O)OC(C)(C)C)C(=O)OC (stereo not drawn) (Boc-Leu-[hSer](Me)-OMe; configuration not given here) gave a GI50 (HCC-2998 colon) of 50.1 µg/mL, a GI50 (HL-60(TB) leukemia) of 37 µg/mL and a GI50 (K-562 leukemia) of 63.1 µg/mL. It also gave a GI50 (SR leukemia) of 31.2 µg/mL (≈ 86.7 µM), a GI50 (MOLT-4 leukemia) of 26 µg/mL and a TGI (MOLT-4 leukemia) of 70.2 µg/mL. It also gave a GI50 (OVCAR-4 ovarian) of 70.2 µg/mL, a GI50 (M14 melanoma) of 48.6 µg/mL and a GI50 (OVCAR-3 ovarian) of 78.4 µg/mL. For the same compound, the GI50 (MCF7 breast) was 59.7 µg/mL, the GI50 (OVCAR-8 ovarian) was 88.3 µg/mL and the GI50 (HCT-15 colon) was 64.9 µg/mL. For the same compound, the GI50 (LOX IMVI melanoma) was 65.1 µg/mL, the GI50 (HCT-116 colon) was 91.6 µg/mL and the GI50 (NCI-H460 lung) was 70.1 µg/mL. For the same compound, the GI50 (NCI-H522 lung) was 31.3 µg/mL, the TGI (NCI-H522 lung) was 80.1 µg/mL and the GI50 (KM12 colon) was 89.9 µg/mL. It also gave a GI50 (CCRF-CEM leukemia) of 17.8 µg/mL.
For COc1cc(C2=C(C#Cc3ccccc3)COC2=O)cc(OC)c1OC, the GI50 (HCC-2998 colon) was 12.4 µM, the TGI (HCC-2998 colon) was 25.8 µM and the GI50 (COLO 205 colon) was 4.89 µM. The TGI (COLO 205 colon) was over 94.6 µM, the GI50 (T-47D breast) was 13.3 µM and the TGI (T-47D breast) was over 100 µM. The GI50 (SK-OV-3 ovarian) was 20.4 µM, the TGI (SK-OV-3 ovarian) was over 100 µM and the GI50 (HL-60(TB) leukemia) was 0.246 µM. The TGI (HL-60(TB) leukemia) was 3.36 µM, the GI50 (MDA-MB-435) was 0.302 µM and the GI50 (K-562 leukemia) was 0.629 µM. It also gave a TGI (K-562 leukemia) of over 100 µM, a GI50 (HOP-62 NSCLC) of 0.706 µM and a TGI (HOP-62 NSCLC) of 2.61 µM. It also gave a GI50 (UACC-62 melanoma) of 0.288 µM, a TGI (UACC-62 melanoma) of 4.12 µM and a GI50 (UACC-257 melanoma) of 6.17 µM. It also gave a TGI (UACC-257 melanoma) of over 70.4 µM, a GI50 (UO-31 renal) of 3.6 µM and a TGI (UO-31 renal) of over 32.7 µM. For the same compound, the GI50 (MOLT-4 leukemia) was 30.1 µM, the TGI (MOLT-4 leukemia) was over 100 µM and the GI50 (MDA-MB-231 breast) was 0.492 µM. It also gave a TGI (MDA-MB-231 breast) of 2.95 µM, a GI50 (786-0 renal) of under 0.0224 µM and a GI50 (BT-549 breast) of 3.26 µM. For the same compound, the TGI (BT-549 breast) was 63.1 µM, the GI50 (HT29 colon) was 3.02 µM and the TGI (HT29 colon) was over 100 µM. For the same compound, the GI50 (EKVX NSCLC) was 18.2 µM, the TGI (EKVX NSCLC) was 38.1 µM and the GI50 (SW-620 colon) was 0.755 µM. It also gave a GI50 (OVCAR-4 ovarian) of 34.2 µM, a TGI (OVCAR-4 ovarian) of over 100 µM and a GI50 (M14 melanoma) of 1.77 µM. For the same compound, the TGI (M14 melanoma) was 11.7 µM, the GI50 (NCI-H23 lung) was 5.51 µM and the TGI (NCI-H23 lung) was 12.8 µM. The GI50 (OVCAR-3 ovarian) was 2.1 µM, the TGI (OVCAR-3 ovarian) was 16.8 µM and the GI50 (TK-10 renal) was 1.9 µM. It also gave a TGI (TK-10 renal) of 5.97 µM, a GI50 (MCF7 breast) of 0.193 µM and a TGI (MCF7 breast) of over 100 µM. It also gave a GI50 (SN12C renal) of 0.261 µM, a TGI (SN12C renal) of 1.38 µM and a GI50 (DU-145 prostate) of 0.293 µM. For the same compound, the TGI (DU-145 prostate) was 18 µM, the GI50 (OVCAR-8 ovarian) was 5.37 µM and the TGI (OVCAR-8 ovarian) was over 45.4 µM. The GI50 (CAKI-1 renal) was 20.3 µM, the TGI (CAKI-1 renal) was over 100 µM and the GI50 (SNB-19 CNS) was 7.27 µM. The TGI (SNB-19 CNS) was over 76 µM, the GI50 (RPMI-8226 leukemia) was 1.34 µM and the TGI (RPMI-8226 leukemia) was 4.05 µM. It also gave a GI50 (SF-539 CNS) of 0.646 µM, a TGI (SF-539 CNS) of 4.87 µM and a GI50 (A498 renal) of 41.1 µM. For the same compound, the TGI (A498 renal) was over 100 µM, the TGI (SK-MEL-28 melanoma) was over 100 µM and the GI50 (HCT-15 colon) was 1.3 µM. The TGI (HCT-15 colon) was 9.39 µM, the GI50 (LOX IMVI melanoma) was 0.738 µM and the TGI (LOX IMVI melanoma) was 3.92 µM. The GI50 (PC-3 prostate) was 1.05 µM, the TGI (PC-3 prostate) was 20.3 µM and the GI50 (SNB-75 CNS) was 4.98 µM. The TGI (SNB-75 CNS) was over 100 µM, the GI50 (ACHN renal) was 1.8 µM and the TGI (ACHN renal) was 8.16 µM. It also gave a GI50 (OVCAR-5 ovarian) of 7.89 µM, a TGI (OVCAR-5 ovarian) of over 57.9 µM and a GI50 (SK-MEL-2 melanoma) of 5.35 µM. The TGI (SK-MEL-2 melanoma) was over 90.9 µM, the GI50 (NCI-H226 lung) was 1.73 µM and the TGI (NCI-H226 lung) was 4.6 µM. It also gave a GI50 (HCT-116 colon) of 0.69 µM, a TGI (HCT-116 colon) of 4.01 µM and a GI50 (NCI-H460 lung) of 3.3 µM. For the same compound, the TGI (NCI-H460 lung) was over 100 µM, the GI50 (SF-268 CNS) was 4.59 µM and the TGI (SF-268 CNS) was over 100 µM. The TGI (IGROV1 ovarian) was over 100 µM, the GI50 (A549 NSCLC) was 14.2 µM and the TGI (A549 NSCLC) was over 100 µM. It also gave a GI50 (NCI-H522 lung) of 3.01 µM, a TGI (NCI-H522 lung) of over 33.7 µM and a GI50 (SF-295 CNS) of 0.687 µM. The GI50 (SK-MEL-5 melanoma) was 2.56 µM, the TGI (SK-MEL-5 melanoma) was 20.1 µM and the GI50 (KM12 colon) was 1.87 µM. For the same compound, the TGI (KM12 colon) was 10.5 µM, the GI50 (RXF 393 renal) was 1.35 µM and the TGI (RXF 393 renal) was over 100 µM. It also gave a GI50 (U251 CNS) of 1.91 µM, a TGI (U251 CNS) of 5.61 µM and a GI50 (NCI/ADR-RES ovarian) of 5.43 µM. It also gave a TGI (NCI/ADR-RES ovarian) of 22.2 µM, a GI50 (HOP-92 NSCLC) of 2.77 µM and a TGI (HOP-92 NSCLC) of 10.6 µM. It also gave a GI50 (CCRF-CEM leukemia) of 3.39 µM, a TGI (CCRF-CEM leukemia) of 59.3 µM and a GI50 (MALME-3M melanoma) of 3.72 µM. For the same compound, the TGI (MALME-3M melanoma) was 33.1 µM.
